Experiments:
[1] = human, in vivo
Protocol: This prospective trial was conducted under IRB#14-001682, IRB#14-001682-AM-00001, and IRB#14-001682-AM-00002 approved by the UCLA Institutional Review Board. Following liver transplant, patients were started on a regimen of tacrolimus, mycophenolate, and methylprednisolone. According to protocol, methylprednisolone dosing was tapered using a 1000-150-[…]-120-80-40-20 mg regimen. Methylprednisolone was subsequently changed to prednisone given at 20 mg which was commonly followed with a tapering protocol. Mycophenolate dosing was administered according to protocols determined by the clinical team. Serum trough levels were taken between 4:00-6:00 AM daily, and a first dose of tacrolimus was administered between 5:00 AM-6:00 AM daily, following the serum trough recording. The clinical team obtained the daily treatment regimen details including drugs already administered, drugs to be administered, hemodialysis to be performed, co-infections, and planned prophylaxis and sent an updated clinical chart for each patient to the FSC team.
Serum levels, drug regimen dosages, and other events such as hemodialysis were obtained every morning prior to analyses. In order to project optimum dosages, a 2nd order polynomial fit for each patient was made from linear regression with mainly two variables, such as trough concentration and tacrolimus dosing amount, and it was used with at least three prior data points for the specific patient.
Statistical analyses were performed by analyzing the accuracy of correlating 2nd order polynomial mapping to the patients' data since patient-specific treatment was conducted in this study. This was accomplished using the coefficient of determination, or R-squared analysis. Values were used to correlate clinical and regression data. Where relevant, statistical significances of all the generated maps for the data analyses were determined using a t-test at α=0.05 level of confidence.

[2] = Retrospective clinical analysis using FSC of liver transplant patient data (tacrolimus serum trough levels, Patients A and B); assay type: in vivo, human; conditions: standard of care (clinically observed), target 8-10 ng/ml
Protocol: Retrospective clinical analysis was performed under IRB#14-001682 approved by the UCLA Institutional Review Board. Discharged liver transplantation patient data, such as serum level and drug regimen dosages, were obtained for analyses for the retrospective study. […] In this process, the inclusion of all the drugs as covariates allowed better representation of each patient's data and examination of the effects of drug-drug interactions within each patient's constructed map. Minimum values based on the difference between the individual patient's serum level reading and a target serum level during various small time windows were collected, and these were entered into the globally fitted map of each patient in order to find the optimum dose for that specific patient.

| Compound | Serum Result (change of tacrolimus serum trough level on co-administration change) [1] | share of treatment with trough levels outside of the target range [1] | trough reading higher than the anticipated trough level [1] | trough reading lower than the anticipated trough level [1] | day from which trough levels deviated permanently from the target range [2] |
| --- | --- | --- | --- | --- | --- |
| CC(=O)NC[C@H]1CN(c2ccc(N3CCOCC3)c(F)c2)C(=O)O1 [Linezolid] | +0.7 |  |  |  |  |
| C=CC[C@@H]1/C=C(\C)C[C@H](C)C[C@H](OC)[C@H]2O[C@@](O)(C(=O)C(=O)N3CCCC[C@H]3C(=O)O[C@H](/C(C)=C/[C@@H]3CC[C@@H](O)[C@H](OC)C3)[C@H](C)[C@@H](O)CC1=O)[C@H](C)C[C@@H]2OC [tacrolimus] |  | 91% | 0.5 ng/mL | 2.0 ng/mL | ≥ 15 days |
